Test results from BindingDB's records for doi:10.1016/s0960-894x(99)00659-9 (Kyoto Pharmaceutical University, 2000).

Assay: Inhibitory activity against porcine pancreatic elastase (PPE)

| IC50 [µM] | Compound |
| --- | --- |
| 32 | O=C(CCc1cccc(Cl)c1Cl)N[C@@H](Cc1ccccc1)C(=O)CCl [N-((S)-1-Benzyl-3-chloro-2-oxo-propyl)-3-(2,3-dichloro-phenyl)-propionamide] |
| 85 | COc1ccccc1CCC(=O)N[C@@H](Cc1ccccc1)C(=O)CCl [N-((S)-1-Benzyl-3-chloro-2-oxo-propyl)-3-(2-methoxy-phenyl)-propionamide] |
| 280 | O=C(CCc1cccc(F)c1)N[C@@H](Cc1ccccc1)C(=O)CCl [N-((S)-1-Benzyl-3-chloro-2-oxo-propyl)-3-(3-fluoro-phenyl)-propionamide] |
| > 1000 | O=C(CCc1cccc(O)c1)N[C@@H](Cc1ccccc1)C(=O)CCl [N-((S)-1-Benzyl-3-chloro-2-oxo-propyl)-3-(3-hydroxy-phenyl)-propionamide] |
| 600 | COc1cccc(CCC(=O)N[C@@H](Cc2ccccc2)C(=O)CCl)c1 [N-((S)-1-Benzyl-3-chloro-2-oxo-propyl)-3-(3-methoxy-phenyl)-propionamide] |
| 37 | O=C(CCc1cccc(C(F)(F)F)c1)N[C@@H](Cc1ccccc1)C(=O)CCl [N-((S)-1-Benzyl-3-chloro-2-oxo-propyl)-3-(3-trifluoromethyl-phenyl)-propionamide] |
| 240 | O=C(CCc1ccc(F)cc1)N[C@@H](Cc1ccccc1)C(=O)CCl [N-((S)-1-Benzyl-3-chloro-2-oxo-propyl)-3-(4-fluoro-phenyl)-propionamide] |
| > 1000 | O=C(CCc1ccc(O)cc1)N[C@@H](Cc1ccccc1)C(=O)CCl [N-((S)-1-Benzyl-3-chloro-2-oxo-propyl)-3-(4-hydroxy-phenyl)-propionamide] |
| 15 | CC(C)c1ccc(CCC(=O)N[C@@H](Cc2ccccc2)C(=O)CCl)cc1 [N-((S)-1-Benzyl-3-chloro-2-oxo-propyl)-3-(4-isopropyl-phenyl)-propionamide] |
| 13 | O=C(CCc1ccc(C(F)(F)F)cc1)N[C@@H](Cc1ccccc1)C(=O)CCl [N-((S)-1-Benzyl-3-chloro-2-oxo-propyl)-3-(4-trifluoromethyl-phenyl)-propionamide] |
| 130 | Cc1cccc(CCC(=O)N[C@@H](Cc2ccccc2)C(=O)CCl)c1 [N-((S)-1-Benzyl-3-chloro-2-oxo-propyl)-3-m-tolyl-propionamide] |
| 90 | Cc1ccc(CCC(=O)N[C@@H](Cc2ccccc2)C(=O)CCl)cc1 [N-((S)-1-Benzyl-3-chloro-2-oxo-propyl)-3-p-tolyl-propionamide] |
| 26 | O=C(/C=C/c1ccccc1)N[C@@H](Cc1ccccc1)C(=O)CCl [N-((S)-1-Benzyl-3-chloro-2-oxo-propyl)-3-phenyl-acrylamide] |
| 150 | O=C(CCc1ccccc1)N[C@@H](Cc1ccccc1)C(=O)CCl [N-((S)-1-Benzyl-3-chloro-2-oxo-propyl)-3-phenyl-propionamide] |
